Results taken from publication PMC3914206.

Tests used:
Type in all cases: binding
Settings in all cases: Compound Concentration 10 µM
panel of 442 kinases [1] = target: T1, panel of 442 kinases (Homo sapiens, UniProt P42336, M1043I)
T1 construct: purchased KINOMEscan
Description: (§1) We assessed the selectivity of members of this scaffold using the KINOMEscan methodology across a near comprehensive panel of 442 kinases [[18,27]].

panel of 442 kinases [2] = target: T2, panel of 442 kinases (Homo sapiens, UniProt Q8N5S9)
T2 construct: purchased KINOMEscan
Description: as §1

panel of 442 kinases [3] = target: T3, panel of 442 kinases (Homo sapiens, UniProt P00533, L861Q)
T3 construct: purchased KINOMEscan
Description: as §1

panel of 442 kinases [4] = target: T4, panel of 442 kinases (Homo sapiens, UniProt Q15759)
T4 construct: purchased KINOMEscan
Description: as §1

T4 sequence (Q15759 whole entry): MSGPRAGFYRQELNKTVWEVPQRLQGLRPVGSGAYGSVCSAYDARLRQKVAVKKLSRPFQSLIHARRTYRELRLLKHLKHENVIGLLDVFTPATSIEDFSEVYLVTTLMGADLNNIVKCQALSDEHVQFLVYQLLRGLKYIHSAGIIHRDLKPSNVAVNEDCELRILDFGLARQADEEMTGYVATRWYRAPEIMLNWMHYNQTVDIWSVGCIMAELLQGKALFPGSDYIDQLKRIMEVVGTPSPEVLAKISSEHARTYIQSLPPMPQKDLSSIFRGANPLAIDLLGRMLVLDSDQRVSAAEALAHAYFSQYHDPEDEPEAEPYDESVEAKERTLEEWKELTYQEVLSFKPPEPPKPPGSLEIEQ
T3 sequence (P00533 25-1210 L861Q): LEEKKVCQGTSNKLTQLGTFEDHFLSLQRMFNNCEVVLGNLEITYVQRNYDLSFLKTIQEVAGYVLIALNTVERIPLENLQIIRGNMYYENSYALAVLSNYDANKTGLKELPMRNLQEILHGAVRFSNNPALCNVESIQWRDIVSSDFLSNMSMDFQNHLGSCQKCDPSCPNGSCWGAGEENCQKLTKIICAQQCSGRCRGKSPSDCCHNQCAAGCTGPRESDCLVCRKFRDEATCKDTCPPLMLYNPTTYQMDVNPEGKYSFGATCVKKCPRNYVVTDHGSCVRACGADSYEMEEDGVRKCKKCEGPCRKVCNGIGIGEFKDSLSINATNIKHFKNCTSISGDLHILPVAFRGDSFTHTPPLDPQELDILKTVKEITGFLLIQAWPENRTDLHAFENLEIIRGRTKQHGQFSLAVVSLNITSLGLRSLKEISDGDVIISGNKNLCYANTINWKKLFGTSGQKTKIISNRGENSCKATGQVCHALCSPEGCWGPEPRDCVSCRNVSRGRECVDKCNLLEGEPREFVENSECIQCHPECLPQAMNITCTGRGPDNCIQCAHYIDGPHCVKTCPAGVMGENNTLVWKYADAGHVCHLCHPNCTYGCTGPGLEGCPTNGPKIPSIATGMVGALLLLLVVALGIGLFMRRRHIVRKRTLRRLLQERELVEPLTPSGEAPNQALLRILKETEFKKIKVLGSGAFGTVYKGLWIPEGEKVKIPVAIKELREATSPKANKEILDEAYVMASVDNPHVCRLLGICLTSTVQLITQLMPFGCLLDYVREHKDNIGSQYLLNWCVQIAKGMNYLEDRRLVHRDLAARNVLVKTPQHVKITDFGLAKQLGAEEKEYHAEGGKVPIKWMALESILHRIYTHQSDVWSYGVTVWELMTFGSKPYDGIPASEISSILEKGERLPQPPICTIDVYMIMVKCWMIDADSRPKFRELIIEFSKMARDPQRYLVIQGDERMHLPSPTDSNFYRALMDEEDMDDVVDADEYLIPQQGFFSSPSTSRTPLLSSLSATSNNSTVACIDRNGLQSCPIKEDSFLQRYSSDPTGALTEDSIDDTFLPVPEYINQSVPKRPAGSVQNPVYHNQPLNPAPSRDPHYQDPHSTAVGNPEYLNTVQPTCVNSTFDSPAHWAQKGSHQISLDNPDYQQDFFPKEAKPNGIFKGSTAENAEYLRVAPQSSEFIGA
T1 sequence (P42336 whole entry M1043I): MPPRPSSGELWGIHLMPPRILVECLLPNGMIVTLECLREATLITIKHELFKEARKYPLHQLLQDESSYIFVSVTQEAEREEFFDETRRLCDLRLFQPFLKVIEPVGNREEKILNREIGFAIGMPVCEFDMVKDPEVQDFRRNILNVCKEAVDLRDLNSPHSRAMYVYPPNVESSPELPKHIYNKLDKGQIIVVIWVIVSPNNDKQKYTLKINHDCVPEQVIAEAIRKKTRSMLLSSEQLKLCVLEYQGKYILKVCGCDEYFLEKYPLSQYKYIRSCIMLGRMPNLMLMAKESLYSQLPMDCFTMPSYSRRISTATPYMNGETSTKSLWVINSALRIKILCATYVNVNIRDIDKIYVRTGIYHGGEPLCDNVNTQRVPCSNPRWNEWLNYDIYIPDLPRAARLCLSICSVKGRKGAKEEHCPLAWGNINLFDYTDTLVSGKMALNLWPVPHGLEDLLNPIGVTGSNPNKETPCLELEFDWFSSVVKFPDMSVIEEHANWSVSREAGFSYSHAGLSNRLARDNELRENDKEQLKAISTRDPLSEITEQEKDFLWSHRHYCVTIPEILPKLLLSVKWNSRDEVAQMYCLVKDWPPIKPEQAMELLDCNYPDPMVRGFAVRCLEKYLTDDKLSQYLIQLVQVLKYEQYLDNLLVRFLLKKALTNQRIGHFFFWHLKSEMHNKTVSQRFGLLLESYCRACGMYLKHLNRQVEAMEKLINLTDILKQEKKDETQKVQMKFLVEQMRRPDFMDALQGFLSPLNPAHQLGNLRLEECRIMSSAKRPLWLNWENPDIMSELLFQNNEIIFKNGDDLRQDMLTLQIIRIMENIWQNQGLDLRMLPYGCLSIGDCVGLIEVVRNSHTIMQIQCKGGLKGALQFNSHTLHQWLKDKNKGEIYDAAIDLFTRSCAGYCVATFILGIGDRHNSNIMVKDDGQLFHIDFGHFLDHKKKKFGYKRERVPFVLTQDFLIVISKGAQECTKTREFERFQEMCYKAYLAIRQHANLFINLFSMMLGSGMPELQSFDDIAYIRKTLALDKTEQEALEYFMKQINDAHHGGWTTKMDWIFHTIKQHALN
T2 sequence (Q8N5S9 whole entry): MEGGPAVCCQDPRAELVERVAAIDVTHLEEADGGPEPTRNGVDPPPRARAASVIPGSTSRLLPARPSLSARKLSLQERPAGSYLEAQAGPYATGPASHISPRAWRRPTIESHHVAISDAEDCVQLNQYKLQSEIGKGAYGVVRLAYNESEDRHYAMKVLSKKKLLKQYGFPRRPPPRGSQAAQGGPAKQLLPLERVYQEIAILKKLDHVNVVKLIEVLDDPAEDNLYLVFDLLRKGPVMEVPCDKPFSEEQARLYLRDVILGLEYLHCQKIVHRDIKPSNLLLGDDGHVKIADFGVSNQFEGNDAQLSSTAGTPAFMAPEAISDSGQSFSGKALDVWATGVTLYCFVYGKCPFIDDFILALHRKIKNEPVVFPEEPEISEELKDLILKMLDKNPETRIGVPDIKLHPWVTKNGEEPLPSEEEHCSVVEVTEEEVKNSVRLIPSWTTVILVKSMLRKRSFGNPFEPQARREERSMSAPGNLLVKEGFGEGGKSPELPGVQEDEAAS

| Compound | KINOMEscan: PIK3CA(M1043I) (panel of 442 kinases [1]) | KINOMEscan: CAMKK1 (panel of 442 kinases [2]) | KINOMEscan: EGFR(L861Q) (panel of 442 kinases [3]) | KINOMEscan: p38-beta (panel of 442 kinases [4]) |
| --- | --- | --- | --- | --- |
| COc1cc(C(=O)N2CCC(N3CCN(C)CC3)CC2)ccc1Nc1ncc2c(n1)N(C1CCCC1)c1ccccc1C(=O)N2C [Compound 25, 11-cyclopentyl-2-((2-methoxy-4-(4-(4-methylpiperazin-1-yl)piperidine-1-carbonyl)phenyl)amino)-5-methyl-5H-benzo[e]pyrimido[5,4-b][1,4]diazepin-6(11H)-one] | 93 | 99 | 89 | 56 |
| CCOc1cc(C(=O)N2CCC(N3CCN(C)CC3)CC2)ccc1Nc1ncc2c(n1)N(C1CCCC1)c1ccccc1C(=O)N2C [Compound 26] | 92 | 100 | 100 | 81 |
| COc1cc(C(=O)N2CCC(N3CCN(C)CC3)CC2)ccc1Nc1ncc2c(n1)N1CCc3cccc(c31)C(=O)N2C [Compound 24] | 66 |  | 82 | 56 |
| COc1cc(C(=O)N2CCC(N3CCN(C)CC3)CC2)ccc1Nc1ncc2c(n1)N(C)c1ccccc1C(=O)N2C [15 (LRRK2-IN-1)] | 65 | 73 | 100 | 60 |
